The values below are quoted from earlier work in patent US20190209701A1, “COMBINATION THERAPY WITH A MEK INHIBITOR, A PD-1 AXIS INHIBITOR, AND A TAXANE” (Genentech, Inc., priority 2016, published 2019).

The subject of series [1] is cancer patients who harbored a BRAF, NRAS, or KRAS mutation.
The conditions of series [2]: concentration-independent.
For series [3], the system named is human tumor xenograft models.
The test system of the next series is human tumor cell lines. Conditions: through inhibition of MEK1 and MEK2.
Assay in series [4]: not given
This is another data set of the same source.

Assay in series [5]: not given
The source holds these as a separate data set.

Read-outs that look alike come from different tables or passages of the source.

In the case of `O=C(c1ccc(F)c(F)c1Nc1ccc(I)cc1F)N1CC(O)([C@@H]2CCCCN2)C1` [Cobimetinib], the “response of colorectal cancer (CRC) patients” value in series [1] (14 CRC patients) is “all patients experienced progressive disease”. In addition, the unconfirmed tumor responses in series [1] (Stage III of Study MEK4592g, 2 patients) is recorded as 11.1%. Also, the “patients with confirmed partial response (PR)” value in series [1] (Study MEK4592g overall, 6 patients, all melanoma) was 6.2%. Further, the “patients with progressive disease” value in series [1] (Study MEK4592g overall, 40 patients) was 41.2%. Moreover, in series [2], the “binding to plasma proteins” value is reported as 95%. Moreover, the tumor regression result in series [3] (dose dependent, highest doses tested, CRC, malignant melanoma, breast carcinoma, lung carcinoma models) is “up to 100%”. Also, the “ERK phosphorylation in xenograft tumor models” value in series [3] (xenograft tumor models) was “inhibits ERK phosphorylation”. For the same molecule, the “proliferation of a variety of human tumor cell lines” value in the series on human tumor cell lines is on record as “inhibits proliferation”. The “dose linearity of pharmacokinetics” value (dose range of 0.05 mg/kg (approximately 3.5 mg for 70 kg adult) to 80 mg) is reported as “linear pharmacokinetics”. For the same molecule, where the note is “fed state compared with fasted state, healthy subjects”, the “food effect on pharmacokinetics” value was “not altered”. The “mean terminal half-life (t1/2)” value (oral) was 48.8 h. Further, under “study MEK4952g in healthy subjects, 90% CI: 39.74%, 53.06%”, the absolute bioavailability is on record as 45.9%. Further, the “effect of proton pump inhibitor rabeprazole on pharmacokinetics” value (with or without high-fat meal vs cobimetinib alone in the fasted state) is given as “minimal effect”.
As to “Atezolizumab: anti-PD-L1 antibody, CAS Registry Number: 1422185-06-5”, in series [4] (Study PCD4989g, 95% CI: 12%, 53%), the “Kaplan-Meier estimated overall 24-week progression-free survival (PFS) rate” value is recorded as 33%. The anti-tumor activity result in series [4] (across doses from 1 to 20 mg/kg) was “anti-tumor activity has been observed”. In series [5] (800 mg every two weeks (equivalent to 10 mg/kg q2w) vs Phase III dose of 1200 mg q3w), the “exposure of fixed dose 800 mg q2w versus 1200 mg q3w” value is given as “equivalent exposure”. Moreover, the “dose linearity of pharmacokinetics” value in series [5] (doses ≥1 mg/kg every three weeks (q3w)) was “linear and consistent with typical IgG1 antibodies”.
